# Test system: retinal vascular permeability in diabetic rats
# Experiment: Diabetic retinopathy, streptozotocin rats
# Format: in vivo, rat
# Conditions: 25 or 75 mg/kg ip 5 days per week, Day 45 to Day 87
# Method: Male Sprague-Dawley rats weighing 150-175 g were used. Diabetes was produced by intraperitoneal injection of streptozotocin (65 mg/kg in citrate buffer) after overnight fasting. Sham-injected non-diabetic animals were also carried as controls. Blood glucose was measured three days post-injection and animals with blood glucose over 250 mg/dL were used as diabetic rats for the study. Blood glucose levels and body weights were monitored weekly throughout the study. On Day 45, retinal vascular permeability was measured in a group of control and diabetic rats (Antonetti et al., 1998, Diabetes 47: 1953, Barber et al., 2005, Invest Ophthalmol Vis Sci 46: 2210). […] Sections were dewaxed and viewed with an Olympus OM-2 fluorescence microscope fitted with a Sony CLD video camera. Fluorescence intensities of digital images were measured using Leica Confocal Software (Version 2.61, build 1538, LCS Lite, 2004). The average retinal intensity for each eye was then normalized to non-injected controls analyzed in the same manner and to the plasma fluorescence of the animal. Through serial sectioning of the eye, this technique enables quantification of varied vascular permeability in the retina (Antonetti et al., 1998, Diabetes 47: 1953, Barber et al., 2005, Ibid.). […]
smiles,measurement,value
"O=C(NCc1ccncc1)C12CC3CC(C1)CC(c1ccc(Cl)cc1)(C3)C2 [Compound 62, 3-(4-Chloro-phenyl)-adamantane-1-carboxylic acid (pyridin-4-ylmethyl)-amide]",FITC-BSA leakage into the retina vs untreated diabetic rats,substantially reduced

# Source: US8557800B2, “Sphingosine kinase inhibitors” (Apogee Biotechnology Corporation, priority 2005, dated 2013)
